Legend:
Assay in all cases: cells
A101D = type: functional, cell-based, Homo sapiens; conditions: Homo sapiens, A101D;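 further: growth inhibition of the cell line, measured with a viability assay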
Description: SANGER: Inhibition of human A101D cell growth in a cell viability assay.

COLO-829 = type: functional, cell-based, Homo sapiens; conditions: Homo sapiens, COLO-829
Description: SANGER: Inhibition of human COLO-829 cell growth in a cell viability assay.

KE-37 = type: functional, cell-based, Homo sapiens; conditions: Homo sapiens, KE-37;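 further: growth inhibition of KE-37 cells, read out with a cell viability assay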
Description: SANGER: Inhibition of human KE-37 cell growth in a cell viability assay.

NOMO-1 = type: functional, cell-based, Homo sapiens; conditions: Homo sapiens, NOMO-1;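 further: growth inhibition of human NOMO-1 cells measured by a cell viability assay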
Description: SANGER: Inhibition of human NOMO-1 cell growth in a cell viability assay.

C2BBe1 = type: functional, cell-based, Homo sapiens; conditions: Homo sapiens, C2BBe1;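 further: growth inhibition of C2BBe1 cells, read out through a viability assay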
Description: SANGER: Inhibition of human C2BBe1 cell growth in a cell viability assay.

COLO-684 = type: functional, cell-based, Homo sapiens; conditions: Homo sapiens, COLO-684
Description: SANGER: Inhibition of human COLO-684 cell growth in a cell viability assay.

OCUB-M = type: functional, cell-based, Homo sapiens; conditions: Homo sapiens, OCUB-M;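 further: growth inhibition of the cancer cell line, read out through a cell viability assay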
Description: SANGER: Inhibition of human OCUB-M cell growth in a cell viability assay.

D-247MG = type: functional, cell-based, Homo sapiens; conditions: Homo sapiens, D-247MG
Description: SANGER: Inhibition of human D-247MG cell growth in a cell viability assay.

DB = type: functional, cell-based, Homo sapiens; conditions: Homo sapiens, DB
Description: SANGER: Inhibition of human DB cell growth in a cell viability assay.

TE-12 = type: functional, cell-based, Homo sapiens; conditions: Homo sapiens, TE-12;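 further: growth inhibition of TE-12 cells, read out by a cell viability assay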
Description: SANGER: Inhibition of human TE-12 cell growth in a cell viability assay.

RH-1 = type: functional, cell-based, Homo sapiens; conditions: Homo sapiens, RH-1;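 further: growth inhibition of human RH-1 cells, read out with a cell viability assay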
Description: SANGER: Inhibition of human RH-1 cell growth in a cell viability assay.

EW-24 = type: functional, cell-based, Homo sapiens; conditions: Homo sapiens, EW-24;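 further: human EW-24 cancer cell line, growth inhibition read out via a cell viability assay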
Description: SANGER: Inhibition of human EW-24 cell growth in a cell viability assay.

RPMI-8866 = type: functional, cell-based, Homo sapiens; conditions: Homo sapiens, RPMI-8866
Description: SANGER: Inhibition of human RPMI-8866 cell growth in a cell viability assay.

NCI-H1395 = type: functional, cell-based, Homo sapiens; conditions: Homo sapiens, NCI-H1395;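 further: cell viability assay read-out quantifying reduced proliferation of human NCI-H1395 cells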
Description: SANGER: Inhibition of human NCI-H1395 cell growth in a cell viability assay.

K562 = type: functional, cell-based, Homo sapiens; conditions: Homo sapiens, K562
Description: SANGER: Inhibition of human K-562 cell growth in a cell viability assay.

J-RT3-T3-5 = type: functional, cell-based, Homo sapiens; conditions: Homo sapiens, J-RT3-T3-5;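 further: cell viability assay measuring growth inhibition of human J-RT3-T3-5 cells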
Description: SANGER: Inhibition of human J-RT3-T3-5 cell growth in a cell viability assay.

BB49-HNC = type: functional, cell-based, Homo sapiens; conditions: Homo sapiens, BB49-HNC;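 further: cell viability assay read-out, reported as inhibition of BB49-HNC cell growth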
Description: SANGER: Inhibition of human BB49-HNC cell growth in a cell viability assay.

TE-10 = type: functional, cell-based, Homo sapiens; conditions: Homo sapiens, TE-10;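 further: growth inhibition of TE-10 cells, measured by a cell viability assay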
Description: SANGER: Inhibition of human TE-10 cell growth in a cell viability assay.

ONS-76 = type: functional, cell-based, Homo sapiens; conditions: Homo sapiens, ONS-76;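 further: growth inhibition of human ONS-76 cells, read out with a cell viability assay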
Description: SANGER: Inhibition of human ONS-76 cell growth in a cell viability assay.

AM-38 = type: functional, cell-based, Homo sapiens; conditions: Homo sapiens, AM-38;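 further: growth inhibition of AM-38 cells of human origin, read out by a cell viability assay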
Description: SANGER: Inhibition of human AM-38 cell growth in a cell viability assay.

NCI-H1355 = type: functional, cell-based, Homo sapiens; conditions: Homo sapiens, NCI-H1355;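 further: growth inhibition of human NCI-H1355 cells, read out by a cell viability assay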
Description: SANGER: Inhibition of human NCI-H1355 cell growth in a cell viability assay.

KNS-42 = type: functional, cell-based, Homo sapiens; conditions: Homo sapiens, KNS-42;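 further: growth inhibition of KNS-42 cells, read out with a cell viability assay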
Description: SANGER: Inhibition of human KNS-42 cell growth in a cell viability assay.

NB17 = type: functional, cell-based, Homo sapiens; conditions: Homo sapiens, NB17;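 further: growth inhibition of NB17 cells, read out with a cell viability assay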
Description: SANGER: Inhibition of human NB17 cell growth in a cell viability assay.

ES1 = type: functional, cell-based, Homo sapiens; conditions: Homo sapiens, ES1;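 further: growth inhibition of ES1 cells, read out with a cell viability assay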
Description: SANGER: Inhibition of human ES1 cell growth in a cell viability assay.

SW 954 = type: functional, cell-based, Homo sapiens; conditions: Homo sapiens, SW 954;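 further: growth inhibition of SW954 human cancer cells, read out as cell viability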
Description: SANGER: Inhibition of human SW954 cell growth in a cell viability assay.

EM-2 = type: functional, cell-based, Homo sapiens; conditions: Homo sapiens, EM-2;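 further: growth inhibition of EM-2 cells, read out with a cell viability assay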
Description: SANGER: Inhibition of human EM-2 cell growth in a cell viability assay.

CGTH-W-1 = type: functional, cell-based, Homo sapiens; conditions: Homo sapiens, CGTH-W-1;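 further: growth inhibition of human CGTH-W-1 cells measured by cell viability assay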
Description: SANGER: Inhibition of human CGTH-W-1 cell growth in a cell viability assay.

KALS-1 = type: functional, cell-based, Homo sapiens; conditions: Homo sapiens, KALS-1;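 further: growth inhibition of KALS-1 cells, determined with a cell viability assay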
Description: SANGER: Inhibition of human KALS-1 cell growth in a cell viability assay.

COR-L88 = type: functional, cell-based, Homo sapiens; conditions: Homo sapiens, COR-L88;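 further: growth inhibition of COR-L88 cells, read out with a cell viability assay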
Description: SANGER: Inhibition of human COR-L88 cell growth in a cell viability assay.

RPMI-8226 = type: functional, cell-based, Homo sapiens; conditions: Homo sapiens, RPMI-8226
Description: SANGER: Inhibition of human RPMI-8226 cell growth in a cell viability assay.

SK-MEL-1 = type: functional, cell-based, Homo sapiens; conditions: Homo sapiens, SK-MEL-1;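 further: growth inhibition of human SK-MEL-1 cells, read out by a cell viability assay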
Description: SANGER: Inhibition of human SK-MEL-1 cell growth in a cell viability assay.

COLO-668 = type: functional, cell-based, Homo sapiens; conditions: Homo sapiens, COLO-668
Description: SANGER: Inhibition of human COLO-668 cell growth in a cell viability assay.

JVM-2 = type: functional, cell-based, Homo sapiens; conditions: Homo sapiens, JVM-2;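 further: growth inhibition of JVM-2 cells determined by a cell viability assay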
Description: SANGER: Inhibition of human JVM-2 cell growth in a cell viability assay.

HH = type: functional, cell-based, Homo sapiens; conditions: Homo sapiens, HH
Description: SANGER: Inhibition of human HH cell growth in a cell viability assay.

SW684 = type: functional, cell-based, Homo sapiens; conditions: Homo sapiens, SW684;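 further: growth inhibition of human SW684 cells, measured by a cell viability assay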
Description: SANGER: Inhibition of human SW684 cell growth in a cell viability assay.

LS-123 = type: functional, cell-based, Homo sapiens; conditions: Homo sapiens, LS-123
Description: SANGER: Inhibition of human LS-123 cell growth in a cell viability assay.

TE-9 = type: functional, cell-based, Homo sapiens; conditions: Homo sapiens, TE-9;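 further: cell growth inhibition, measured with a cell viability readout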
Description: SANGER: Inhibition of human TE-9 cell growth in a cell viability assay.

SK-UT-1 = type: functional, cell-based, Homo sapiens; conditions: Homo sapiens, SK-UT-1;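 further: growth inhibition of SK-UT-1 cells, measured by a cell viability assay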
Description: SANGER: Inhibition of human SK-UT-1 cell growth in a cell viability assay.

DOHH-2 = type: functional, cell-based, Homo sapiens; conditions: Homo sapiens, DOHH-2;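 further: growth inhibition of human DOHH-2 cells, read out with a cell viability assay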
Description: SANGER: Inhibition of human DOHH-2 cell growth in a cell viability assay.

ML-2 = type: functional, cell-based, Homo sapiens; conditions: Homo sapiens, ML-2;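 further: growth inhibition of ML-2 cells, measured with a cell viability readout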
Description: SANGER: Inhibition of human ML-2 cell growth in a cell viability assay.

MV4-11 = type: functional, cell-based, Homo sapiens, MV-4-11; conditions: Homo sapiens, MV4-11;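 further: cell viability readout measuring growth inhibition of human MV-4-11 cells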
Description: SANGER: Inhibition of human MV-4-11 cell growth in a cell viability assay.

NB5 = type: functional, cell-based, Homo sapiens; conditions: Homo sapiens, NB5;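 further: growth inhibition of NB5 cells, read out as cell viability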
Description: SANGER: Inhibition of human NB5 cell growth in a cell viability assay.

NTERA-2-cl-D1 = type: functional, cell-based, Homo sapiens; conditions: Homo sapiens, NTERA-2-cl-D1;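 further: inhibition of cell growth, measured with a cell viability assay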
Description: SANGER: Inhibition of human NTERA-S-cl-D1 cell growth in a cell viability assay.

GI-ME-N = type: functional, cell-based, Homo sapiens; conditions: Homo sapiens, GI-ME-N;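 further: growth inhibition of human GI-ME-N cells, read out with a cell viability assay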
Description: SANGER: Inhibition of human GI-ME-N cell growth in a cell viability assay.

K5 = type: functional, cell-based, Homo sapiens; conditions: Homo sapiens, K5
Description: SANGER: Inhibition of human K5 cell growth in a cell viability assay.

HuTu80 = type: functional, cell-based, Homo sapiens, HUTU-80; conditions: Homo sapiens, HuTu80;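 further: growth inhibition of HuTu80 human cells, determined with a cell viability readout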
Description: SANGER: Inhibition of human HUTU-80 cell growth in a cell viability assay.

NCI-H23 = type: functional, cell-based, Homo sapiens; conditions: Homo sapiens, NCI-H23;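 further: cell viability assay measuring growth inhibition of NCI-H23 cells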
Description: SANGER: Inhibition of human NCI-H23 cell growth in a cell viability assay.

KURAMOCHI = type: functional, cell-based, Homo sapiens; conditions: Homo sapiens, KURAMOCHI;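 further: growth inhibition of KURAMOCHI cells, read out with a cell viability assay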
Description: SANGER: Inhibition of human KURAMOCHI cell growth in a cell viability assay.

`CC[C@H](CO)Nc1nc(NCc2ccccc2)c2ncn(C(C)C)c2n1` [SELICICLIB] gave an IC50 (A101D) greater than 16000 nM, an IC50 (COLO-829) greater than 16000 nM and an IC50 (KE-37) greater than 16000 nM. The IC50 (NOMO-1) was greater than 16000 nM, the IC50 (C2BBe1) was greater than 16000 nM and the IC50 (COLO-684) was greater than 16000 nM. The IC50 (OCUB-M) was greater than 16000 nM, the IC50 (D-247MG) was 12400 nM and the IC50 (DB) was greater than 16000 nM. For the same compound, the IC50 (TE-12) was greater than 16000 nM, the IC50 (RH-1) was greater than 16000 nM and the IC50 (EW-24) was greater than 16000 nM. It also gave an IC50 (RPMI-8866) greater than 16000 nM, an IC50 (NCI-H1395) greater than 16000 nM and an IC50 (K562) greater than 16000 nM. The IC50 (J-RT3-T3-5) was greater than 16000 nM, the IC50 (BB49-HNC) was greater than 16000 nM and the IC50 (TE-10) was greater than 16000 nM. For the same compound, the IC50 (ONS-76) was greater than 16000 nM, the IC50 (AM-38) was greater than 16000 nM and the IC50 (NCI-H1355) was greater than 16000 nM. For the same compound, the IC50 (KNS-42) was greater than 16000 nM, the IC50 (NB17) was greater than 16000 nM and the IC50 (ES1) was greater than 16000 nM. The IC50 (SW 954) was greater than 16000 nM, the IC50 (EM-2) was greater than 16000 nM and the IC50 (CGTH-W-1) was greater than 16000 nM. It also gave an IC50 (KALS-1) greater than 16000 nM, an IC50 (COR-L88) greater than 16000 nM and an IC50 (RPMI-8226) greater than 16000 nM. For the same compound, the IC50 (SK-MEL-1) was greater than 16000 nM, the IC50 (COLO-668) was greater than 16000 nM and the IC50 (JVM-2) was greater than 16000 nM. For the same compound, the IC50 (HH) was greater than 16000 nM, the IC50 (SW684) was greater than 16000 nM and the IC50 (LS-123) was greater than 16000 nM. For the same compound, the IC50 (TE-9) was greater than 16000 nM, the IC50 (SK-UT-1) was 10300 nM and the IC50 (DOHH-2) was greater than 16000 nM. The IC50 (ML-2) was greater than 16000 nM, the IC50 (MV4-11) was greater than 16000 nM and the IC50 (NB5) was greater than 16000 nM. The IC50 (NTERA-2-cl-D1) was greater than 16000 nM, the IC50 (GI-ME-N) was greater than 16000 nM and the IC50 (K5) was greater than 16000 nM. It also gave an IC50 (HuTu80) greater than 16000 nM and an IC50 (NCI-H23) greater than 16000 nM.

For `COc1cc2ncn(-c3cc(OCc4ccccc4C(F)(F)F)c(C(N)=O)s3)c2cc1OC` [GW843682X], the IC50 (A101D) was 11.3 nM, the IC50 (COLO-829) was greater than 256 nM and the IC50 (KE-37) was 4.77 nM. For the same compound, the IC50 (NOMO-1) was greater than 256 nM, the IC50 (C2BBe1) was greater than 256 nM and the IC50 (COLO-684) was 95.4 nM. The IC50 (OCUB-M) was 12.2 nM, the IC50 (D-247MG) was greater than 256 nM and the IC50 (DB) was greater than 256 nM. The IC50 (TE-12) was 27.3 nM, the IC50 (RH-1) was 242 nM and the IC50 (EW-24) was greater than 256 nM. For the same compound, the IC50 (RPMI-8866) was greater than 256 nM, the IC50 (KURAMOCHI) was 50.1 nM and the IC50 (NCI-H1395) was greater than 256 nM. The IC50 (K562) was 59.4 nM, the IC50 (J-RT3-T3-5) was 21.2 nM and the IC50 (BB49-HNC) was greater than 256 nM. The IC50 (TE-10) was 12.6 nM, the IC50 (ONS-76) was 77.8 nM and the IC50 (AM-38) was greater than 256 nM. For the same compound, the IC50 (NCI-H1355) was 11.9 nM, the IC50 (KNS-42) was 24.7 nM and the IC50 (NB17) was 41 nM. It also gave an IC50 (ES1) of 25 nM, an IC50 (SW 954) of 18.1 nM and an IC50 (EM-2) of 111 nM. For the same compound, the IC50 (CGTH-W-1) was greater than 256 nM, the IC50 (KALS-1) was 22.5 nM and the IC50 (COR-L88) was 78.4 nM. It also gave an IC50 (RPMI-8226) of 28.1 nM, an IC50 (SK-MEL-1) greater than 256 nM and an IC50 (COLO-668) greater than 256 nM. The IC50 (JVM-2) was greater than 256 nM, the IC50 (HH) was 98.8 nM and the IC50 (SW684) was greater than 256 nM. For the same compound, the IC50 (LS-123) was 193 nM, the IC50 (TE-9) was 21.3 nM and the IC50 (SK-UT-1) was 23.7 nM. It also gave an IC50 (DOHH-2) of 60.8 nM, an IC50 (ML-2) of 50.3 nM and an IC50 (MV4-11) of 25.9 nM. For the same compound, the IC50 (NB5) was 86.2 nM, the IC50 (NTERA-2-cl-D1) was 17.4 nM and the IC50 (GI-ME-N) was 88.3 nM. The IC50 (K5) was 72.7 nM, the IC50 (HuTu80) was 22.3 nM and the IC50 (NCI-H23) was greater than 256 nM.

With `C#Cc1cccc(Nc2ncnc3cc(OCCOC)c(OCCOC)cc23)c1` [ERLOTINIB] the IC50 (A101D) was greater than 2000 nM, the IC50 (COLO-829) was greater than 2000 nM and the IC50 (KE-37) was greater than 2000 nM. The IC50 (NOMO-1) was greater than 2000 nM, the IC50 (C2BBe1) was greater than 2000 nM and the IC50 (COLO-684) was greater than 2000 nM. The IC50 (OCUB-M) was greater than 2000 nM, the IC50 (D-247MG) was greater than 2000 nM and the IC50 (TE-12) was 54.4 nM. It also gave an IC50 (RH-1) greater than 2000 nM, an IC50 (EW-24) of 594 nM and an IC50 (RPMI-8866) greater than 2000 nM. It also gave an IC50 (KURAMOCHI) greater than 2000 nM, an IC50 (NCI-H1395) greater than 2000 nM and an IC50 (K562) greater than 2000 nM. It also gave an IC50 (J-RT3-T3-5) greater than 2000 nM, an IC50 (BB49-HNC) greater than 2000 nM and an IC50 (TE-10) greater than 2000 nM. For the same compound, the IC50 (ONS-76) was greater than 2000 nM, the IC50 (AM-38) was greater than 2000 nM and the IC50 (NCI-H1355) was greater than 2000 nM. The IC50 (KNS-42) was greater than 2000 nM, the IC50 (NB17) was greater than 2000 nM and the IC50 (ES1) was greater than 2000 nM. It also gave an IC50 (SW 954) greater than 2000 nM, an IC50 (EM-2) greater than 2000 nM and an IC50 (CGTH-W-1) greater than 2000 nM. For the same compound, the IC50 (KALS-1) was greater than 2000 nM, the IC50 (COR-L88) was greater than 2000 nM and the IC50 (SK-MEL-1) was greater than 2000 nM. It also gave an IC50 (COLO-668) greater than 2000 nM, an IC50 (JVM-2) greater than 2000 nM and an IC50 (HH) greater than 2000 nM. It also gave an IC50 (SW684) greater than 2000 nM, an IC50 (LS-123) greater than 2000 nM and an IC50 (TE-9) of 1230 nM. It also gave an IC50 (SK-UT-1) greater than 2000 nM, an IC50 (DOHH-2) greater than 2000 nM and an IC50 (ML-2) greater than 2000 nM. It also gave an IC50 (NB5) greater than 2000 nM, an IC50 (NTERA-2-cl-D1) greater than 2000 nM and an IC50 (GI-ME-N) greater than 2000 nM. For the same compound, the IC50 (K5) was greater than 2000 nM, the IC50 (HuTu80) was greater than 2000 nM and the IC50 (NCI-H23) was greater than 2000 nM.
